Source: patent US8841269B2, “Polynucleotides for use in treating and diagnosing cancers” (Creighton University, priority 2010, dated 2014)
Entries after “also recorded” stand apart in the source; their conditions may differ.

Tests used:
[1] = tested on: MCF7 cells; experiment: Annexin-V binding assay for apoptosis in MCF7; format: cell-based, human; conditions: MCF7, after either 3 days or 6 days
Method: Annexin-V binding assay for apoptosis. […] The staining followed the protocol of FITC Annexin V Apoptosis Detection Kit I (Cat #556547, BD Biosciences). Cell populations were analyzed with a BD FACSAria™ flow cytometer. Approximately 20,000 cells were counted for each sample.

[2] = tested on: estrogen response element (ERE) construct; experiment: ERE luciferase assay (2 ERE-tk-Luc), genomic estrogen pathway in MCF7; format: cell-based, human
Method: For checking on the genomic estrogen pathway, 10^5 MCF7 cells were first seeded into each well on a 24-well plate and cultured in IMEM with 2.5% charcoal-stripped FBS for 2 days. Then the cells were transfected as described above except that the estrogen response element (ERE) construct (2 ERE-tk-Luc; obtained from Katarine Pettersson, Karolinska Institute, Stockholm) replaced the pMIR-REPORT plasmid for 1 day. After stimulation with 10 nmol/L E2 for 12 hours, luciferase activity was measured as described above.

[3] = tested on: ER-α mRNA; experiment: Real-time PCR of ER-α mRNA after transfection in MCF7; format: cell-based, human; conditions: MCF7, mimics, after 6 days
Method: For real-time PCR on the expression of ER-α, total RNA was extracted using Trizol reagent (Invitrogen). One microgram RNA was used for cDNA synthesis following the protocol of SuperScript III First-Strand Synthesis System (Invitrogen). After 10 times dilution, 4 μL cDNA was used in a 20 μL reaction volume, which included 4 μL of 1.5 μM primers, 2 μL of 2 μM probes, and 10 μL master mix (Applied Biosystems). β-actin was the internal control. The oligos for ER-α are: forward primer, 5′-GCGGCCACGGACCAT (SEQ ID NO:17); reverse primer, 5′-[…] (SEQ ID NO:18); probe, 5′-FAM-[…]-TAMRA (SEQ ID NO:19).
(§1) For FFPE tissues, there was the same repeat number as in microarray; for cell lines, there were three biological repeats. Each sample had three technical repeats on the PCR plate. Real-time PCR was performed on an Applied Biosystems 7900HT real-time PCR instrument. PCR was initiated by two holds of 52° C. 2 min and 94° C. 10 min each, followed by 40 cycles of 15 s at 95° C. and 1 min at 60° C.

[4] = Real-time PCR quantification of mature let-7 after mimic transfection in MCF7; format: cell-based, human; conditions: MCF7, relative quantity against RNU48
Method: Quantitative real-time PCR. For miRNA quantification in FFPE tissues, total RNA was extracted as described above; for miRNA quantification in cell lines, total RNA was isolated using mirVana miRNA Isolation Kit (Ambion Inc.). cDNA was synthesized by using 100 ng total RNA in a reaction volume of 15 μL, by following the protocol of Taqman miRNA Reverse Transcription Kit (Applied Biosystems). After 15 times dilution, 9 μL cDNA was used for real-time PCR in a 20 μL reaction volume, including 10 μL of master mix and 1 μL Taqman probe (Applied Biosystems). This reaction system only detects mature miRNAs not pre-miRNAs. The level of each miRNA was expressed following the 2^−ΔΔCt or […] method using the small nuclear RNA, RNU48, as the internal reference.
as §1

[5] = tested on: cyclin D1; experiment: Immunoblot of cyclin D1 after transfection in MCF7; format: cell-based, human; conditions: MCF7, mimics
Excerpt: (§2) Immunoblot analysis. For Western blot in FFPE tissues, an established method was followed (Addis et al., 2009, Proteomics 9:3815-23). For MCF7 cell line, let-7 mimics and negative control miRNA (60 nmol/L), or let-7 inhibitors and anti-miR negative control (60 nmol/L) were transfected following the protocol of siPORT NeoFX Transfection Agent (Applied Biosystems), The Western blot procedure was described before (Zhang et al., 2010, J Proteome Res., 9(2):980-989). Antibody information is as follows: ER-α, RB-9016-P1, Thermoscientific; Cyclin D1, sc-8396, Santa Cruz; pS2, ab80782 was Abeam; β-Actin, sc-69879, Santa Cruz.

[6] = tested on: pS2; experiment: Immunoblot of pS2 after transfection in MCF7; format: cell-based, human; conditions: MCF7, mimics
Excerpt: as §2

[7] = tested on: 3′ UTR of human ER-α gene; experiment: Luciferase reporter assay, ER-α 3′ UTR let-7 binding site in pMIR-REPORT; format: cell-based; conditions: MCF7 cells
Excerpt: Luciferase assay. A fragment of the 3′ UTR of human ER-α gene, which contains the putative let-7 target sites, was synthesized (IDT technology). With attached SpeI and HindIII restriction sites, the fragments are 48 by long. The sense strand was 5′-[…] (SEQ ID NO:39) while the antisense strand was 5′-[…] (SEQ ID NO:40). The cloning and transfection followed previous protocol (Hu et al., 2009, J Immunol 183:1617-24). Sixty nanomolar let-7 mimics, anti-let-7 inhibitors, pre-miR negative control #1 (AM17110, Ambion), or anti-miR negative control #1 (AM17010, Ambion) were transfected together with a 0.25 μg luciferase construct and a 0.25 μg β-galactosidase plasmid, which were used as a normalization reference. After 24 hour post-transfection, the luciferase activity was measured in a Veritas Microplate Luminometer (Turner Biosystems). Every treatment had 3 replicates. The luciferase activity was expressed as a fraction of negative control.

[8] = tested on: MCF7 cells; experiment: MTT cell proliferation assay in MCF7; format: cell-based, human
Method: (§3) MTT cell proliferation assay. MCF7 cells were transfected with let-7 mimics or negative controls (60 nmol/L) in normal growth medium for 1 day, or in medium with 2.5% charcoal-stripped FBS for 2 days to exhaust endogenous estrogen, following the protocol of siPORT NeoFX Transfection Agent (Applied Biosystems). For the experiment in normal growth medium, 10^4 cells in the volume of 100 μL were seeded in a 96-well plate for 12 hours and assay lasted for another 4 days. For experiments in E2 free medium, 1.5 10^4 cells were seeded in a 96-well plate for 12 hours and then exposed to 10 nmol/L E2, or not, for up to 4 days. For both experiments, each treatment had 12 replicates on the plate. The cells were then incubated in 0.83 mg/mL 3-[4,5-dimethylthiazol-2-yl]-2,5-diphenyltetrazolium bromide (MTT) in growth medium at 37° C. for 4 h and lysed in 100 μL of DMSO at room temperature for 15 min. The absorbance in each well was measured at 490 nm by an ELx800 Absorbance Microplate Reader (Biotek). Cell proliferation was normalized to day 0.

[9] = tested on: ER-α; experiment: Immunoblot of ER-α after transfection in MCF7; format: cell-based, human; conditions: MCF7, mimics 60 nmol/L
Excerpt: as §2

[10] = tested on: ER-α negative MDA-MB-231 cell line; experiment: MTT cell proliferation assay in MDA-MB-231; format: cell-based, human; conditions: MDA-MB-231, DMEM with 10% FBS
Method: FIG. 10. The effects of let-7a, let-7b, and let-7i miRNAs on cell proliferation in ER-α negative MDA-MB-231 cell line. Cancer cell proliferation was monitored by MTT assays in the same way as in MCF7 cell line except MDA-MB-231 cells were grown in DMEM with 10% FBS.
as §3

let-7a: let-7a miRNA (mimic), 3′-UUGAUAUGUUGGAUGAUGGAGU-5′ (SEQ ID NO:7) (chemistry not given here; listed 3' to 5')
effect on apoptosis [1]: not significant | ERE luciferase activity ([2]; MCF7, p2 ERE-tk-Luc, 10 nmol/L E2 12 hours, p<0.01): about 60 % of negative control | luciferase activity of the ERE construct ([2]; MCF7 cell line): inhibit the luciferase activity of the ERE construct | ER-α mRNA expression [3]: relieved | rank of forced expression throughout the time course [4]: lowest expression | expression of cyclin D1 (protein) ([5]; after 2 days): significantly inhibited | protein expression of cyclin D1 ([5]; after 6 days): affected neither | expression of pS2 (protein) ([6]; after 2 days): significantly inhibited | protein expression of pS2 ([6]; after 6 days): affected neither | luciferase activity, ER-α binding site in 3′UTR of luciferase ([7]; 60 nmol/L mimics, vs negative control miRNA): decreased the luciferase activity; also recorded: significantly inhibited the luciferase activity | luciferase activity, mutated ER-α binding sequence ([7]; mutated sequence in 3′UTR of luciferase): abrogated the effects; also recorded: did not show inhibition | cell growth (MTT) with E2 ([8]; MCF7, E2 free medium with addition of 10 nmol/L E2): least inhibition | cell growth (MTT) ([8]; MCF7, E2 free medium with or without addition of 10 nmol/L E2 (FIG. 9B-D)): slightly inhibited | cell proliferation (MTT) ([8]; MCF7, normal growth medium, 60 nmol/L): did not show a significant effect | expression of ER-α (protein) ([9]; after 2 days): significantly depressed the expression of ER-α | expression of ER-α (protein) ([9]; after 6 days): modest effect | cell growth (MTT) [10]: None of three miRNAs significantly inhibited cell growth
